Paper PMC7816042, “Insights into the Structure-Activity Relationship of Glycosides as Positive Allosteric Modulators Acting on P2X7 Receptors” (Molecular Pharmacology, 2021)

Columns and labels:
[1] = molecular target: T1, endogenous P2X7 in THP-1 cells (Homo sapiens, UniProt Q99572); experiment: Fura-2 calcium measurements in THP-1 monocytes; type: cell-based; conditions: for Effect on ATP-induced calcium response: 500 µM ATP co-applied with 10 µM glycoside
T1 sequence (Q99572 1-394 limits assumed): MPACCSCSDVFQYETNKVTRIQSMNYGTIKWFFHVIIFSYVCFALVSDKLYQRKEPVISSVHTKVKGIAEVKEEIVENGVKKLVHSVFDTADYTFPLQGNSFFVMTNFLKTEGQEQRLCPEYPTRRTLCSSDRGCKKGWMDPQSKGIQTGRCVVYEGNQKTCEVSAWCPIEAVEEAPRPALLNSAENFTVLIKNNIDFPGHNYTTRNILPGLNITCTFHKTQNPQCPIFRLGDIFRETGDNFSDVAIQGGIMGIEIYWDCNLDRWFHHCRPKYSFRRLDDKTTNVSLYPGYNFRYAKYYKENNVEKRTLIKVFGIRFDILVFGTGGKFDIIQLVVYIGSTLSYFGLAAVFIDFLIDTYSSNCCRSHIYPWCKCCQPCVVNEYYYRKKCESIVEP
Method: THP-1 cells were pelleted by centrifugation (300g, 5 minute), washed, and resuspended in Hanks’ balanced salt solution buffer containing 2 μM fura-2 AM (HelloBio) and 250 μM (±)-sulfinpyrazone. Cells were loaded for 1 hour in a waterbath at 37°C while shielded from light with foil. Loaded cells were washed once with 5 ml Hanks’ balanced salt solution to remove excess fura-2 AM dye. THP-1 cells were then resuspended, counted, and plated at 2 × 10^5 cells per well in a standard clear 96-well plate (NUNC 167008; Thermo Scientific) in low divalent assay buffer without Mg^2+ (145 mM NaCl, 2 mM KCl and 2 mM CaCl2, 13 mM glucose, 10 mM HEPES, pH 7.3) containing 250 μM (±)-sulfinpyrazone. The 10× concentration of agonist (ATP) was prepared in the same assay buffer. ATP was injected automatically into wells at 30 seconds in a Flexstation 3 microplate reader. Ratiometric data were acquired using 340 and 380 nm for excitation wavelengths, 520 nm as the emission wavelength, and six reads per well (PMT medium). Area under the curve was calculated using standard zero baseline normalization with a lag time 0–300 seconds using SoftMax Pro version 5.4 software.
(§1) Results are expressed as means ± S.D. from the indicated number of experiments. For YO-PRO-1 dye uptake and intracellular calcium experiments, each independent experiment used triplicate wells, and the means of the replicates were collated and plotted. Technical replicates were used to ensure reliability of fluorescence values. […] Dose-response curves were plotted by a nonlinear regression fit with variable slope using GraphPad Prism software version 7. Half-maximal responses are expressed as EC50 values with 95% confidence intervals. These values were calculated from the collated data for each compound from three independent experiments. Statistical differences were determined by analysis of the data by one-way ANOVA followed by Dunnett’s multiple comparison test or Sidak’s multiple comparison test using GraphPad Prism version 7. P < 0.05 was the accepted minimum level of significance.

human P2X7 [2] = molecular target: T2, human P2X7 (Homo sapiens, UniProt Q99572); experiment: YO-PRO-1 dye uptake assay in HEK-hP2X7 cells; type: cell-based; conditions: 10 µM glycoside; for PAM effect on ATP dose-response curve: HEK-hP2X7, result in words; for EC50 ratio: average EC50 for ATP + vehicle of each set of experiments used; for Maximum response (fold increase): maximum response defined at 1 mM ATP
T2 construct: expressed in transfected cells
T2 sequence (Q99572 1-595): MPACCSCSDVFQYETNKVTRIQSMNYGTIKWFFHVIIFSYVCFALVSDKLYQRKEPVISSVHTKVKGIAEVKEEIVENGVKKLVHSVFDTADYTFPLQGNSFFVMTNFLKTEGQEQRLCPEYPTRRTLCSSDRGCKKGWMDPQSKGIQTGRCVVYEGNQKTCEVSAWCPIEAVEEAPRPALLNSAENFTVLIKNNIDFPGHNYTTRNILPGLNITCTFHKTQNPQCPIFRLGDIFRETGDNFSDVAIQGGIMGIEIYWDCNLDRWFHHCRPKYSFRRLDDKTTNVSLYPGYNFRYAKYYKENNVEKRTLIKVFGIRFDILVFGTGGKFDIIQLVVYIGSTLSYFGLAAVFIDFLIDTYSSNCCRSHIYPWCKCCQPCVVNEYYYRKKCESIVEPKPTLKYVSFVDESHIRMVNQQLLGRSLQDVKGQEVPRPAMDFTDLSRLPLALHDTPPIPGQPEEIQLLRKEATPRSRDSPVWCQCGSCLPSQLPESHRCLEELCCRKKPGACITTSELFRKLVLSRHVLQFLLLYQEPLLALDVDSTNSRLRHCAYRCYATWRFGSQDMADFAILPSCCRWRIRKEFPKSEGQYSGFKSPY
Method: ATP-induced dye uptake experiments were performed as described previously ([Bidula et al., 2019b]). Briefly, HEK-hP2X7 cells were plated at 2 × 10^4 cells per well (100 μl per well) in complete medium and left overnight to attach to poly-D-lysine–coated 96-well plates. YO-PRO-1 iodide was prepared in a low divalent buffered solution ([…], 2 mM KCl, 13 mM D-glucose, 10 mM HEPES, 0.2 mM CaCl2 pH 7.3) to a final concentration of 2 μM. Medium was removed from the plate using a manual multichannel pipette and YO-PRO-1 containing buffer applied to wells (180 μl per well). […] A Flexstation 3 plate reader (Molecular Devices, Sunnyvale, CA) was used to record YO-PRO-1 fluorescence in HEK-hP2X7 for 300 seconds after the addition of ATP (at 10× final concentration) with/without ginsenoside compounds or vehicle (DMSO). Plates were allowed to warm up to 37°C for 10 minutes before initiating the recording. Baseline recordings were made for 40 seconds before compound addition using the Flexstation 3 fluidics system. YO-PRO-1 fluorescence was measured at 520 nm after excitation at 490 nm (auto cutoff at 495 nm), and the sample interval was 3.5 seconds. Flexstation settings were photomultiplier tube (PMT) medium, six reads per well, pipette height 170, and a rate of injection of 3. Data were acquired using Softmax Pro version 5.4 (Molecular Devices). To analyze the data, area under the dye uptake curve was calculated in Softmax Pro version 5 using zero baseline data with a lag time of 50 seconds (50–300 seconds).
as §1

HEK-hP2X7 cells = experiment: Cell viability assay (resazurin/Alamar blue) in HEK-hP2X7 cells; type: cell-based, human; conditions: 24 hours
Method: HEK-hP2X7 or THP-1 cells were seeded at 5 × 10^3 cells per well in a volume of 100 μl for 24 hours in 96-well plates (Nunclon Edge plates, catalog number 167425; Thermo Scientific). Cells were plated in DMEM:F12 medium or RPMI 1640 medium containing 1% FBS and penicillin/streptomycin for 24 hours in a humidified incubator at 37°C with a constant supply of 5% CO2. Edge wells of the plates were filled with autoclaved distilled water to prevent evaporation of media from wells containing cells. The compounds and ATP were made at 2× final concentration in 1% FBS DMEM:F12 and 100 μl added to the cells for 24 hours. After incubation, resazurin sodium salt (CAS 62758-13-8; Sigma Aldrich) at 0.1 mg/ml in sterile PBS was added to the plate (20 into 200 µl culture medium per well). Cells were incubated for a further 2 hours in a humidified incubator at 37°C with a supply of 5% CO2. A Flexstation 3 microplate reader was used to acquire data. Endpoint fluorescence data were measured using 570 nm excitation wavelength, 600 nm emission wavelength (cutoff at 590 nm), and three reads per well (PMT low). Data were analyzed by performing background correction through subtracting blank medium readings (without cells) from all samples and then normalizing each sample to medium treated cells (control treatment, 100%) as percentage of control.
Results are expressed as means ± S.D. from the indicated number of experiments. For YO-PRO-1 dye uptake and intracellular calcium experiments, each independent experiment used triplicate wells, and the means of the replicates were collated and plotted. Technical replicates were used to ensure reliability of fluorescence values. Cell viability data were normalized to the vehicle control for each experiment after background correction had been performed. Dose-response curves were plotted by a nonlinear regression fit with variable slope using GraphPad Prism software version 7. Half-maximal responses are expressed as EC50 values with 95% confidence intervals. These values were calculated from the collated data for each compound from three independent experiments. Statistical differences were determined by analysis of the data by one-way ANOVA followed by Dunnett’s multiple comparison test or Sidak’s multiple comparison test using GraphPad Prism version 7. P < 0.05 was the accepted minimum level of significance.

human P2X7 [3] = molecular target: T2, human P2X7; design: method as in Helliwell et al., 2015; conditions: ref Helliwell et al., 2015; cited from earlier work

| Antagonist effect on ginsenoside-CK potentiated calcium response ([1]; 10 µM antagonist pretreatment, 500 µM ATP + ginsenoside-CK) | Antagonist effect on calcium response to ATP alone ([1]; 500 µM ATP, antagonist pretreatment) | SMILES | PAM effect on ATP dose-response curve (human P2X7 [2]) | EC50 ratio (human P2X7 [2]) | Maximum response (fold increase) (human P2X7 [2]) [fold] | Cell viability in combination with ATP (HEK-hP2X7 cells) | Effect on ATP-induced calcium response [1] | Maximum response (fold increase) (human P2X7 [2]; listed as gypenoside XVII) [fold] | PAM activity at human P2X7 (human P2X7 [3]) |
| --- | --- | --- | --- | --- | --- | --- | --- | --- | --- |
| completely abolished | did not dramatically affect | O=C1CSC(=O)N1C(CCc1ccncc1)COc1ccc(-c2cccc([N+](=O)[O-])c2)cc1 (centres unmarked) [AZ11645373, reference compound] |  |  |  |  |  |  |  |
|  |  | CC(C)=CCC[C@@](C)(O)[C@H]1CC[C@]2(C)[C@@H]1[C@H](O)C[C@@H]1[C@@]3(C)CC[C@H](O[C@@H]4O[C@H](CO)[C@@H](O)[C@H](O)[C@H]4O[C@@H]4O[C@H](CO)[C@@H](O)[C@H](O)[C@H]4O)C(C)(C)[C@@H]3CC[C@]12C [Ginsenoside-20(R)-Rg3, 20(R)-ginsenoside-Rg3] | inactive | 1.0 | 0.94 | neither gypenoside XVII nor 20(R)-Rg3 in combination with ATP affected cell viability |  |  |  |
|  |  | CC(C)=CCC[C@](C)(O)[C@H]1CC[C@]2(C)[C@@H]1[C@H](O)C[C@@H]1[C@@]3(C)CC[C@H](O[C@@H]4O[C@H](CO)[C@@H](O)[C@H](O)[C@H]4O[C@@H]4O[C@H](CO)[C@@H](O)[C@H](O)[C@H]4O)C(C)(C)[C@@H]3CC[C@]12C [Ginsenoside-20(S)-Rg3, 20(S)-ginsenoside-Rg3] | positive modulator activity with a reduced EC50 for ATP and increased maximal response | 1.8 | 2.4 | could reduce cell viability | potentiated |  |  |
|  |  | CC(C)=CCC[C@](C)(O[C@@H]1O[C@H](CO)[C@@H](O)[C@H](O)[C@H]1O)[C@H]1CC[C@]2(C)[C@@H]1[C@H](O)C[C@@H]1[C@@]3(C)CC[C@H](O)C(C)(C)[C@@H]3[C@@H](O)C[C@]12C [Ginsenoside-F1, ginsenoside-F1] | did not potentiate P2X7 responses | 1.1 | 1.46 |  | inactive |  |  |
|  |  | CC(C)=CCC[C@](C)(O[C@@H]1O[C@H](CO)[C@@H](O)[C@H](O)[C@H]1O)[C@H]1CC[C@]2(C)[C@@H]1[C@H](O)C[C@@H]1[C@@]3(C)CC[C@H](O[C@@H]4O[C@H](CO)[C@@H](O)[C@H](O)[C@H]4O)C(C)(C)[C@@H]3CC[C@]12C [Ginsenoside-F2, ginsenoside-F2] | mixed type I/II effect | 5.4 | 2.23 | could reduce cell viability | potentiated |  |  |
|  |  | CC(C)=CCC[C@](C)(O[C@@H]1O[C@H](CO)[C@@H](O)[C@H](O)[C@H]1O)[C@H]1CC[C@]2(C)[C@@H]1[C@H](O)C[C@@H]1[C@@]3(C)CC[C@H](O[C@@H]4O[C@H](CO)[C@@H](O)[C@H](O)[C@H]4O[C@@H]4O[C@H](CO)[C@@H](O)[C@H](O)[C@H]4O)C(C)(C)[C@@H]3CC[C@]12C [Ginsenoside-Rd, ginsenoside-Rd] | mixed type I/II effects | 3.8 | 2.77 | very effective at enhancing cell death | potentiated |  |  |
|  |  | CC(C)=CCC[C@](C)(O[C@@H]1O[C@H](CO[C@@H]2O[C@H](CO)[C@@H](O)[C@H](O)[C@H]2O)[C@@H](O)[C@H](O)[C@H]1O)[C@H]1CC[C@]2(C)[C@@H]1[C@H](O)C[C@@H]1[C@@]3(C)CC[C@H](O[C@@H]4O[C@H](CO)[C@@H](O)[C@H](O)[C@H]4O)C(C)(C)[C@@H]3CC[C@]12C [Gypenoside XVII, gypenoside XVII] |  | 2.4 | 2.0 | neither gypenoside XVII nor 20(R)-Rg3 in combination with ATP affected cell viability |  | 2 |  |
|  |  | CC(C)=CCC[C@](C)(O)[C@H]1CC[C@]2(C)[C@@H]1[C@H](O)C[C@@H]1[C@@]3(C)CC[C@H](O)C(C)(C)[C@@H]3CC[C@]12C [PPD, protopanaxadiol] | no effect on the ATP dose-response curve |  |  |  |  |  | no activity |
|  |  | CC(C)=CCC[C@](C)(O)[C@H]1CC[C@]2(C)[C@@H]1[C@H](O)C[C@@H]1[C@@]3(C)CC[C@H](O[C@@H]4O[C@H](CO)[C@@H](O)[C@H](O)[C@H]4O)C(C)(C)[C@@H]3CC[C@]12C [ginsenoside-Rh2] |  |  |  |  |  |  | able to potentiate hP2X7 responses |
